The molecules below were run against His-tagged recombinant human TrkA (Homo sapiens (Human), UniProt P04629) (assay: TrkA LanthaScreen Eu Kinase Binding Assay). Details: averaged IC50; TR-FRET binding, 60 min, 22° C.; read-out: TrkA Enzyme IC50.
How it was run: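 TR-FRET binding: 5 nM His-tagged human TrkA cytoplasmic domain with 4 nM Alexa-Fluor Tracer 236, 2 nM biotin anti-His and 2 nM Eu-streptavidin. Buffer was 25 mM MOPS pH 7.5, 5 mM MgCl2, 0.005% Triton X-100, 2% DMSO, 60 min at 22° C. IC50 from a four-parameter fit of ratiometric percent of control.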

Sequence of His-tagged recombinant human TrkA (P04629 440-796): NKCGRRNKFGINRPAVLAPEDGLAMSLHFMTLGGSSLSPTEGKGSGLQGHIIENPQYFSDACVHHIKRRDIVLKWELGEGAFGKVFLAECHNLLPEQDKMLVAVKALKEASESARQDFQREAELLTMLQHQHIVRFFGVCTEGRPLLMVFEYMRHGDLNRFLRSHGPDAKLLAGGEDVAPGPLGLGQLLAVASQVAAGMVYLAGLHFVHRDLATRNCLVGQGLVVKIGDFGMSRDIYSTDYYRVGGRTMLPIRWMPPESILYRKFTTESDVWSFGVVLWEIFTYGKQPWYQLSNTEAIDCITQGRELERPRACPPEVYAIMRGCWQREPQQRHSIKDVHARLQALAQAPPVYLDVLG

IC50 [nM]	SMILES
< 100	Cc1c(OC[C@H]2CNCCO2)nn(-c2ccccc2)c1NC(=O)N[C@@H]1c2ccccc2C(C)(C)C[C@H]1O [Example 150, 1-((1R,2R)-2-hydroxy-4,4-dimethyl-1,2,3,4-tetrahydronaphthalen-1-yl)-3-(4-methyl-3-((R)-morpholin-2-ylmethoxy)-1-phenyl-1H-pyrazol-5-yl)urea]
< 100	Cc1c(OC[C@H]2CN(C(C)C)CCO2)nn(-c2ccccc2)c1NC(=O)N[C@@H]1c2ccccc2C(C)(C)C[C@H]1O [Example 151, 1-((1R,2R)-2-hydroxy-4,4-dimethyl-1,2,3,4-tetrahydronaphthalen-1-yl)-3-(3-(((R)-4-isopropylmorpholin-2-yl)methoxy)-4-methyl-1-phenyl-1H-pyrazol-5-yl)urea]
< 100	COc1nn(-c2ccccc2)c(NC(=O)N[C@@H]2c3ccccc3C(C)(C)[C@@H](OC)[C@H]2O)c1C [Example 153, 1-((r-1,t-2,t-3)-2-hydroxy-3-methoxy-4,4-dimethyl 1,2,3,4-tetrahydronaphthalen-1-yl)-3-(3-methoxy-4-methyl-1-phenyl-1H-pyrazol-5-yl)urea]
< 100	CO[C@H]1[C@@H](O)[C@H](NC(=O)Nc2c(C)c(-c3ccc(=O)n(C)c3)nn2-c2ccccc2)c2ccccc2C1(C)C [Example 154, 1-((r-1,t-2,t-3)-2-hydroxy-3-methoxy-4,4-dimethyl-1,2,3,4-tetrahydronaphthalen-1-yl)-3-(4-methyl-3-(1-methyl-6-oxo-1,6-dihydropyridin-3-yl)-1-phenyl-1H-pyrazol-5-yl)urea]
< 100	CO[C@H]1[C@@H](O)[C@H](NC(=O)Nc2c(C)c(-c3cnc(C)nc3)nn2-c2ccccc2)c2ccccc2C1(C)C [Example 155, 1-((r-1,t-2,t-3)-2-hydroxy-3-methoxy-4,4-dimethyl-1,2,3,4-tetrahydronaphthalen-1-yl)-3-(4-methyl-3-(2-methylpyrimidin-5-yl)-1-phenyl-1H-pyrazol-5-yl)urea]
< 100	CNC(=O)c1nn(-c2ccccc2)c(NC(=O)N[C@@H]2c3ccccc3C(C)(C)[C@H](OC)[C@H]2O)c1C [Example 156, 5-(3-((r-1,t-2,c-3)-2-hydroxy-3-methoxy-4,4-dimethyl-1,2,3,4-tetrahydronaphthalen-1-yl)ureido)-N,4-dimethyl-1-phenyl-1H-pyrazole-3-carboxamide]
< 100	CO[C@@H]1[C@@H](O)[C@H](NC(=O)Nc2c(C)c(-c3cnn(C)c3)nn2-c2ccccc2)c2ccccc2C1(C)C [Example 157, 1-(1′,4-dimethyl-1-phenyl-1H,1′H-[3,4′-bipyrazol]-5-yl)-3-((r-1,t-2,c-3)-2-hydroxy-3-methoxy-4,4-dimethyl-1,2,3,4-tetrahydronaphthalen-1-yl)urea]
< 100	CO[C@@H]1[C@@H](O)[C@H](NC(=O)Nc2c(C)c(OCC3CCN(C)CC3)nn2-c2ccccc2)c2ccccc2C1(C)C [Example 158, 1-((r-1,t-2,c-3)-2-hydroxy-3-methoxy-4,4-dimethyl-1,2,3,4-tetrahydronaphthalen-1-yl)-3-(4-methyl-3-((1-methylpiperidin-4-yl)methoxy)-1-phenyl-1H-pyrazol-5-yl)urea]
